In US12486276B2, “5-(2,5-difluorophenyl)pyrrolidin-1-yl)-3-(1H-pyrazol-1-yl)pyrazolo[1,5-a]pyrimidine derivatives and related compounds as Trk kinase inhibitors for treating cancer” (Pyramid Biosciences, Inc., priority 2017, dated 2025) one finds IC50 data, which are given here for 43 compounds.

The target in the assay is T1, TrkA kinase domain (Homo sapiens, UniProt P04629).
T1 construct: TrkA kinase domain was supplied by SignalChem; purchased SignalChem
T1 sequence (P04629 510-781 limits assumed): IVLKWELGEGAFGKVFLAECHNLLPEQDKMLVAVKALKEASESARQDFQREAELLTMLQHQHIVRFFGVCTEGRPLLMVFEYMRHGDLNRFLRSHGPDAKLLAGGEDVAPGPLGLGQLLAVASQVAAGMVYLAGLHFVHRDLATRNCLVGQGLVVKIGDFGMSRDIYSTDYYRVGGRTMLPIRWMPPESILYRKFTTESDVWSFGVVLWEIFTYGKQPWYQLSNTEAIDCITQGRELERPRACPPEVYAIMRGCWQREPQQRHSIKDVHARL
The assay can be described thus: TrkA Kinase Assay (Trk kinase biochemical assay). The following applies: 33 pM TrkA, 100 nM peptide substrate, 10 µM ATP; 15 minute preincubation; read-out: TrkA WT IC50. Here is the method: Example 33: TrkA Kinase Assay Protocol
TrkA kinase domain was supplied by SignalChem. Ulight PolyGT peptide substrate and Europium labeled W1024 antiphosphotyrosine antibody were supplied by Perkin Elmer. Assay buffer contained 50 mM HEPES, 10 mM MgCb, 1 mM EGTA, 2 mM DTT, 0.1 mg/mL BSA, and 0.005% w/v tween 20, pH 7.5. Enzyme dilution buffer was made by supplementing assay buffer with 25% w/v glycerol. Antibody dilution buffer contained 20 mM Tris, 137 mM NaCl, and 0.05% w/v tween 20, pH 8.0. Buffers were prepared at room temperature. Enzyme solutions were made on ice, while other solutions were made at room temperature and all subsequent assay steps were performed at room temperature. The TrkA stock solution (0.1 mg/mL) was diluted 156× in enzyme dilution buffer and then 100× in assay buffer. Five pL/well of enzyme solution was added to the assay plate (Greiner black 384-well nonbinding plate), with buffer containing no enzyme added to negative control wells. Test compounds were serially diluted in DMSO at 300× final assay concentration. One μL of each test compound dilution was mixed with 99 pL assay buffer plus ATP (30 μM) and five pL of each test compound-ATP solution was added to w¾13s containing enzyme. Positive control wells contained enzyme and substrates but no test compounds. After a 15 minute enzyme-test compound preincubation, five pL of substrate diluted in assay buffer was added to all wells. Final assay concentrations were 33 pM TrkA, 100 nM peptide substrate, and […]. After a five minute reaction, five pL of 80 mM EDTA was added, followed five minutes later by five pL two nM antibody solution. The ratio of fluorescence at 665 nm vs. 615 nM in each well was determined using a Tecan Infinite Pro F200 plate reader. For each test compound well, percent inhibition w % s calculated (% inliib. =100-100*(test value-neg. control)/(pos. control-neg. control)). Percent inhibition values were fit to a four parameter logistic to determine ICso values for each test compound.
Turning to `Fc1ccc(F)c([C@H]2CCCN2c2ccn3ncc(-n4cc(C(F)(F)F)cn4)c3n2)c1` [I-147], the 50% inhibitory concentration (IC50) was below 10 nM.

For the compound `Cc1cnn(-c2cnn3ccc(N4CCC[C@@H]4c4cc(F)ccc4F)nc23)c1` [I-148], the IC50 was below 10 nM. Under `Fc1ccc(F)c([C@H]2CCCN2c2ccn3ncc(-n4cc(-c5ccccc5)cn4)c3n2)c1` [I-149] stands below 10 nM. For the compound `Cc1cn(-c2cnn3ccc(N4CCC[C@@H]4c4cc(F)ccc4F)nc23)nc1C` [I-150], the IC50 is below 10 nM. For `Cc1nn(-c2cnn3ccc(N4CCC[C@@H]4c4cc(F)ccc4F)nc23)cc1-c1ccccc1` [I-151], the half-inhibitory concentration (IC50) is below 10 nM. Under `Fc1ccc(F)c([C@H]2CCCN2c2ccn3ncc(-n4cccn4)c3n2)c1` [I-152, (R)-5-(2-(2,5-difluorophenyI)pyrroIidin-1-yl)-3-(1H-pyrazol-1-yl)pyrazolo[1,5-a]pyrimidine] stands below 10 nM. Under `Fc1ccc(F)c([C@H]2CCCN2c2ccn3ncc(-n4cc(-c5cnccn5)cn4)c3n2)c1` [I-153] stands below 10 nM. As to `Cc1cnn(-c2cnn3ccc(N4CCC[C@@H]4c4nc(F)ccc4F)nc23)c1` [I-154, (R)-5-(2-(3,6-difluoropyridin-2-yl)pyrrolidin-1-yl)-3-(4-methyl-1H-pyrazol-1-yl)pyrazolo[1,5-a]pyrimidine], the concentration for half-maximal inhibition (IC50) was below 10 nM.

For the compound `OCc1cnn(-c2cnn3ccc(N4CCC[C@@H]4c4cc(F)ccc4F)nc23)c1` [I-155], the half-inhibitory concentration (IC50) was below 10 nM. With `OCCc1cnn(-c2cnn3ccc(N4CCC[C@@H]4c4cc(F)ccc4F)nc23)c1` [I-156] the figure was below 10 nM.

For `Cc1noc(C)c1-c1cnn(-c2cnn3ccc(N4CCC[C@@H]4c4cc(F)ccc4F)nc23)c1` [I-157, (R)-4-(1-(5-(2-(2,5-difluorophenyl)pyrrolidin˜yl)pyrazolo[,5-a]pyrimidin-3-yl)-1H-pyrazol-4-yl)-3,5-dimethylisoxazole], the IC50 was below 10 nM.

For `Cn1cc(-c2cnn(-c3cnn4ccc(N5CCC[C@@H]5c5cc(F)ccc5F)nc34)c2)cn1` [I-158], the IC50 was below 10 nM.

With `Fc1ccc(F)c([C@H]2CCCN2c2ccn3ncc(-n4cc(-c5cccnc5)cn4)c3n2)c1` [I-159], the IC50 is below 10 nM.

For the compound `Fc1ccc(F)c([C@H]2CCCN2c2ccn3ncc(-n4cc(-c5ccncc5)cn4)c3n2)c1` [I-160], the half-maximal inhibitory concentration (IC50) was below 10 nM. Regarding `COc1cncc(-c2cnn(-c3cnn4ccc(N5CCC[C@@H]5c5cc(F)ccc5F)nc34)c2)c1` [I-161], the half-maximal inhibitory concentration (IC50) is below 10 nM. Consider `Fc1ccc(F)c([C@H]2CCCN2c2ccn3ncc(-n4cc(-c5ccsc5)cn4)c3n2)c1` [I-162], for which the half-maximal inhibitory concentration (IC50) is below 10 nM. In the case of `Fc1ccc(F)c([C@H]2CCCN2c2ccn3ncc(-n4cc(-c5cncnc5)cn4)c3n2)c1` [I-163], the 50% inhibitory concentration (IC50) was below 10 nM. In the case of `Cc1ncc(-c2cnn(-c3cnn4ccc(N5CCC[C@@H]5c5cc(F)ccc5F)nc34)c2)s1` [I-164], the half-inhibitory concentration (IC50) is below 10 nM.

As to `Cn1ccc(-c2cnn(-c3cnn4ccc(N5CCC[C@@H]5c5cc(F)ccc5F)nc34)c2)cc1=O` [I-165], the IC50 is below 10 nM. With `COc1cc(C)nn1-c1cnn2ccc(N3CCC[C@@H]3c3cc(F)ccc3F)nc12` [I-166] the figure was above 500 nM.

Take `COc1cc(C)n(-c2cnn3ccc(N4CCC[C@@H]4c4cc(F)ccc4F)nc23)n1` [I-167]: the IC50 was above 500 nM. Under `Fc1ccc(F)c([C@H]2CCCN2c2ccn3ncc(-n4cncn4)c3n2)c1` [I-168] stands below 10 nM; under `CC(C)(O)c1cnn(-c2cnn3ccc(N4CCC[C@@H]4c4cc(F)ccc4F)nc23)c1` [I-169], below 10 nM. Under `N#Cc1cnn(-c2cnn3ccc(N4CCC[C@@H]4c4cc(F)ccc4F)nc23)c1` [I-170, (R)-1-(5-(2-(2,5-difluorophenyl)pyrrolidin-1-yl)pyrazolo[J5-a]pyrimidin-3-yl)-1H-pyrazole-4-carbonitrile] stands below 10 nM; under `Fc1ccc(F)c([C@H]2CCCN2c2ccn3ncc(-n4cc(-c5cn[nH]c5)cn4)c3n2)c1` [I-171], below 10 nM.

With `COc1cnn(-c2cnn3ccc(N4CCC[C@@H]4c4cc(F)ccc4F)nc23)c1` [I-172], the IC50 is below 10 nM. Under `NC(=O)c1cnn(-c2cnn3ccc(N4CCC[C@@H]4c4cc(F)ccc4F)nc23)c1` [I-173, (R)-1-(5-(2-(2,5-difluorophenyl)pyrrolidin-1-yl)pyrazolo[1,5-a]pyrimidin-3-yl)-1H-pyrazole-4-carboxamide] stands below 10 nM; under `CP(C)(=O)c1cnn(-c2cnn3ccc(N4CCC[C@@H]4c4cc(F)ccc4F)nc23)c1` [I-174, (R)-(1-(5-(2-(2,5-difluorophenyl)pyrrolidm-1-yl)pyrazolo[1,5-a]pyrimidin-3-yl)-1H-pyrazol-4-yl)dimethylphosphine-oxide], below 10 nM.

`Fc1ccc(F)c([C@H]2CCCN2c2ccn3ncc(-n4cc(C5=CCOCC5)cn4)c3n2)c1` [I-175, (R)-5-(2-(2,5-difluorophenyl)pyrrolidin-1-yl)-3-(4-(3,6-dihydro-2H-pyran-4-yl)-1H-pyrazol-1-yl)pyrazolo[1,5-a]pyrimidine]: the 50% inhibitory concentration (IC50) is below 10 nM. Under `Fc1ccc(F)c([C@H]2CCCN2c2ccn3ncc(-n4cc(C(F)F)cn4)c3n2)c1` [I-176, (R)-3-(4-(difluor®methyl)-1H-pyrazol-1-yl)-5-(2-(2,5-difluorophenyl)pyrrolidin-˜yl)pyrazolo[1,5-a]pyriniidine] stands below 10 nM; under `CCP(=O)(CC)c1cnn(-c2cnn3ccc(N4CCC[C@@H]4c4cc(F)ccc4F)nc23)c1` [I-177], below 10 nM. For the compound `Cc1nnc(-c2cnn(-c3cnn4ccc(N5CCC[C@@H]5c5cc(F)ccc5F)nc34)c2)o1` [I-178, (R)-2-(1-(5-(2-(2,5-difluorophenyl)pyrrolidin-1-yl)pyrazolo[1,5-a]pyrimidin-3-yl)-1H-pyrazol-4-yl)-5-methyl-1,3,4-oxadiazole], the half-maximal inhibitory concentration (IC50) was below 10 nM. With `Fc1ccc(F)c([C@H]2CCCN2c2ccn3ncc(-n4cc(OC5COC5)cn4)c3n2)c1` [I-179] the figure was below 10 nM; with `COCCOCc1cnn(-c2cnn3ccc(N4CCC[C@@H]4c4cc(F)ccc4F)nc23)c1` [I-180, (R)-5-(2-(2,5-difluerophenyl)pyrrolidin-1-yl)-3-(4-((2-methoxyethoxy)methyl)-1H-pyrazol-1-yl)pyrazolo[1,5-a]pyrimidine], below 10 nM. In the case of `CS(=O)(=O)c1cnn(-c2cnn3ccc(N4CCC[C@@H]4c4cc(F)ccc4F)nc23)c1` [I-181, (R)-5-(2-(2,5-difluorophenyl)pyrrolidin-1-yl)-3-(4-(methylsulfonyl)-1H-pyrazoI-1-yl)pyrazolo[1,5-a]pyrimidine], the 50% inhibitory concentration (IC50) was below 10 nM.

As for `Cc1cnn(-c2cnn3ccc(N4CCC[C@@H]4c4ncccc4F)nc23)c1` [I-182, (R)-5-(2-(3-fluoropyridin-2-yl)pyrrolidin-1-yl)-3-(4-methyl-1H-pyrazol-1-yl)pyrazolo[1,5-a] pyrimidine], the 50% inhibitory concentration (IC50) was below 10 nM.

Consider `Fc1ccc(F)c([C@H]2CCCN2c2ccn3ncc(-n4cc5c(n4)CCOC5)c3n2)c1` [I-183, (R)-2-(5-(2-(2,5-difluorophenyl)pyrrolidin-1-yl)pyrazolo[1,5-a]pyrimidin-3-yl)-2,4,6,7-tetrahydropyrano[4,3-c]pyrazole], for which the half-inhibitory concentration (IC50) was below 10 nM.

For `Fc1ccc(F)c([C@H]2CCCN2c2ccn3ncc(-n4ncc5c4CCOC5)c3n2)c1` [I-184, (R)-1-(5-(2-(2,5-difluorophenyl)pyrrolidin-1-yl)pyrazolo[1,5-a]pyrimidin-3-yl)-1,4,6,7-tetrahydropyrano[4,3-c]pyrazole], the IC50 is below 10 nM. Under `O=C(c1cnn(-c2cnn3ccc(N4CCC[C@@H]4c4cc(F)ccc4F)nc23)c1)N1CCOCC1` [I-185, (R)-(1-(5-(2-(2,5-difluoropheiiyl)pyrrolidin-1-yl)pyrazolo[la]pyrimidin-3-yl)-1H-pyrazol-4-yl)(morpholino)methanone] stands below 10 nM. `CN(C)Cc1cnn(-c2cnn3ccc(N4CCC[C@@H]4c4cc(F)ccc4F)nc23)c1` [I-186, (R)-1-(1-(5-(2-(2,5-difluor®phenyl)pyrrolidin-1-yl)pyrazolo[1,5-a]pyrimidin-3-yl)-1H-pyrazol-4-yl)-N,N-dimethylmethanamine]: the IC50 was below 10 nM. Under `Fc1ccc(F)c([C@H]2CCCN2c2ccn3ncc(-n4cc(C5CCOCC5)cn4)c3n2)c1` [I-187, (R)-5-(2-(2,5-difluorophenyi)pyrrolidin-1-yl)-3-(4-(tetrahydro-2H-pyran-4-yl)-1H-pyrazol-1-yl)pyrazolo[1,5-a]pyrimidine] stands below 10 nM; under `Fc1ccc(F)c([C@H]2CCCN2c2ccn3ncc(-n4cc(C5=CCOC5)cn4)c3n2)c1` [I-188], below 10 nM; under `Fc1ccc(F)c([C@H]2CCCN2c2ccn3ncc(-n4cc(-c5ccoc5)cn4)c3n2)c1` [I-189], below 10 nM.
